Assay results as given in US11779597B2, “Method of treating Parkinson's and other neurodegenerative diseases” (Vector Vitale IP LLC, priority 2019, dated 2023).

Legend:
peritoneal macrophages = assay: Functional and phenotypic properties of peritoneal phagocytes in LPS rat models; assay type: in vivo; settings: animal models of PD
Method: On the 1st day of the experiment, rats were either operated to model hemi-parkinsonism or sham operated. From the 9th to the 18th day of the experiment, the animals were injected either deuterium-depleted water or the test substance, according to their allocation into groups, for 10 days. On the 8th day of the experiment (before initiation of treatment—apomorphine test I) and on the 21st day of the experiment (after the end of administering the test substance —apomorphine test II) the animals underwent an apomorphine test to analyze the development of hemi-parkinsonism which correlates with the number of destroyed dopaminergic neurons. In addition, a follow-up analysis of fecal water content was carried out, i.e., before the start of treatment on the 8th day after the operation, as well as on the 21st (after the end of treatment) and the 28th day (before autopsy). On the 24th day of the experiment, behavioral tests were carried out in all groups. All animals were weighed before autopsy. […]
To assess the anti-inflammatory and immunomodulating effects of the test substance, microglia and peritoneal macrophages were isolated. Phenotypic and functional features of peripheral blood phagocytes were evaluated without their fractioning (using whole blood). […]
Phagocytic activity of microglia, peritoneal macrophages and peripheral blood phagocytes was analyzed on a flow cytometer using FITC-labeled S. aureus Wood 46 cells as an object of phagocytosis. […]
Oxidative metabolism of phagocytes of various localization was analyzed by flow cytometry using the cell-permeant 2′7′-dichlorodihydrofluorescein-diacetate (DHP) (carboxy-H2DCFDA, Invitrogen, USA) which is converted by intracellular esterases to the nonfluorescent membrane-impermeable carboxy-H2DCF form.
The phenotypic profile of phagocytes of various localization was characterized by the expression of markers of functional maturity and metabolic polarization (CD206, CD80 and CD86), which was determined by flow cytometry and the use of monoclonal antibodies of appropriate specificity marked with fluorescent dyes (Abcam, Becton Dickinson).

rat microglial cells = assay: Metabolic profile of nonsensitized rat microglial cells in vitro; assay type: cell-based
Method: Materials and methods: Rat microglial cells were isolated by mechanical (cell sieves) disintegration of the brain tissue (FIG. 30A, FIG. 30B and FIG. 30C) followed by fractionation of the tissue homogenate in Percoll density gradient (Microglia: Methods and Protocols, Edited by Bertrand Josef and Jose Luis Venero, Springer protocol. Humana Press, 2013, 350 p.) (FIG. 31). Before the collection of the brain tissue, decapitation was performed to avoid hemorrhage to the brain during sampling (FIG. 32). Decapitation was performed immediately after anesthesia to minimize the death of brain tissue, including microglial cells. All manipulations for the isolation of microglial cells were carried out using coolants. Circulating neutrophils were isolated from venous blood taken into a tube containing EDTA in a two-step Percoll gradient (Alsharif K F et al. Vascul Pharmacol. 2015 August; 71:201-7. doi: 10.1016/j.vph.2015.02.006)(FIG. 33A and FIG. 33B). Circulating monocytes were isolated from venous blood collected into a tube containing heparin in a two-step Hypaque gradient (Macrophages and dendritic cells: Methods and Protocols, Edited by Neil E. Reiner, NY, Humana Press, 2009: 368 P). The metabolic profile of phagocytes was characterized based on the pathway of arginine metabolism (levels of arginase activity and NO synthesis measured using photocolorimetric methods), the level of formation of intracellular reactive oxygen species (ROS) by esterases and the indices of phagocytic activity determined by flow cytofluorimetry, as well as according to the activation levels of NADH and NADPH oxidases determined in NBT test. Duration of treatment of phagocytes of all the above mentioned populations varied depending on the methodological characteristics of metabolic response. A 90 minute exposure to the drugs according to Kim et al., 1977 (cited above) was used to analyze their effects on oxidative metabolism and phagocytic activity. An 18 hour exposure according to Lastra et al., 2001 (cited above) was used to analyze the drug effects on arginine metabolic pathway. To analyze the effects of the drugs under study on the induced (stimulated) metabolic activity of phagocytes, the cells were treated with lipopolysaccharide (LPS) from E. coli (Sigma, USA) according to Haddad et al., 2009 (cited above).

[1] = regardless of the concentration, in vitro

## ^64Zn-enriched zinc aspartate [^64Zne-asp]
Peritoneal macrophages
  expression of all phenotypic markers in peritoneal macrophages: significant increase
  oxidative metabolism of the peritoneal exudate cells: decrease
  phagocytic activity of the peritoneal exudate cells: activation
Rat microglial cells; 2.5 μg/ml
  arginase activity of microglial cells on the background of LPS treatment: moderately strengthened
Rat microglial cells; 10 μg/ml
  LPS-stimulated activity of NO synthase (synthesis of nitrites) in microglial cells: decreased
Rat microglial cells; 20 and 5 μg/ml
  ROS production stimulated by LPS in microglial cells: significantly inhibited
Rat microglial cells; 20 and 10 μg/ml
  spontaneous esterase-dependent oxidative metabolism (intracellular ROS) in microglial cells: stimulated
Rat microglial cells; all concentrations studied
  number of phagocytic cells in the microglial population: without affecting
  phagocytic activity of microglial cells: moderately increased
Rat microglial cells; concentrations ≤5 μg/ml
  spontaneous esterase-dependent oxidative metabolism (intracellular ROS) in microglial cells: no statistically significant effect
Rat microglial cells; other concentrations
  ROS production stimulated by LPS in microglial cells: did not have any effect
Rat microglial cells; [1]
  spontaneous arginase activity of nonsensitized microglial cells: virtually no effect
  spontaneous nitric oxide production by nonsensitized microglial cells: reduced
